Values joined by “and” are separate entries in the source; they are usually repeats but may differ in a detail not shown here. Identical values can stand only once.
Columns and labels:
Type in all cases: in vivo
[1] = tested on: wheat (Var. VitPro) seedlings; assay: Foliar treatment of wheat, relative water content under drought stress (Example 17); settings: drought stressed, flag leaves, untreated drought stressed 35.8%
Method: Wheat seedlings were given foliar treatments with a range of concentrations of 6-oxo-1,4,5,6 tetrahydropyridazine-3-carboxylic acid and the seedlings were grown to near maturity and drought stressed. Their relative water contents were determined to examine the effectiveness of different concentrations of 6-oxo-1,4,5,6-tetrahydropyridizine-3-carboxylic acid in conferring drought resistance.
Sets of wheat (Var. VitPro) seedlings were given foliar treatments of 6-oxo-1,4,5,6 tetrahydropyridazine-3-carboxylic acid at concentrations of 1 mM or 0.1 mM in aqueous solutions. Two treatments were made; one at Zaddok GS 12(FIG. 1) and a second at Zadoks GS 14 (FIG. 1) and the plants grown until the first flag leaf was fully developed on the control plants. The treated plants and one set of controls were then drought stressed and the relative water content was determined for each set of plants. There were two sets of control plants; one was maintained with normal watering and a second control was drought stressed along with the treated plants. When each of the plants had at least two wilted leaves the water content of the drought stressed plants was determined relative to that of the normal, well-watered control plants. The flag leaves were harvested and used to determine the relative water content.

[2] = tested on: Corn; assay: Foliar treatment dose series, root and shoot fresh weight, corn (Example 8); settings: 35 days post treatment; for Root, FWt: dose 0: 2.3; for Shoot, FWt: dose 0: 6.1
Method: Corn and wheat plants were given a foliar treatment […] (as described in Example 2) with 6-oxo-1,4,5,6 tetrahydropyridazine-3-carboxylic acid (THP) and then assessed for root and shoot biomass. Three treatment dosages were applied (Table 2). Plants were grown in a greenhouse with a diurnal cycle of 55-75F with ambient light. The plants were grown in a coarse river sand in 4″ pots with 0.5 g of Osmacote/pot. The mean root and shoot fresh weights were assessed at 35 days post treatment.

[3] = tested on: Wheat seeds (Var. VitPro); assay: Wheat seed treatment, leaf wilting under drought (Example 16); settings: Drought stress; for Wilted leaves: 0 mM: 40; for Total leaves: 0 mM: 47; for % Wilted leaves: 0 mM: 85%
Method: Wheat seeds were treated with 6-oxo-1,4,5,6 tetrahydropyridazine-3-carboxylic and leaf wilting was tracked to examine the resistance to drought in the seedlings as shown in Table 6. Wheat seeds (Var. VitPro) were treated with an aqueous solution of either 0 mM, 1 mM, 0.5 mM, 0.1 mM or 0.01 mM 6-oxo-1,4,5,6 tetrahydropyridazine-3-carboxylic acid at pH 5.7-5.8. The 0 mM 6-oxo-1,4,5,6-tetrahydropyridizine-3-carboxylic acid seeds were imbibed in aqueous solution containing only the soft soap and glycerol. The plants were allowed to grow to Zadoks GS13 (FIG. 1) when water was withheld until plants in all of the treatments had wilted leaves.

[4] = tested on: Wheat; assay: Seed treatment plus foliar spray, root and shoot biomass and emergence, wheat (Example 2)
Method: Winter wheat variety AWC 13 seeds were treated with either 6-oxo-1,4,5,6-tetrahydropyridazine-3-carboxylic acid (THP) or 1-methyl 6-oxo-1,4,5,6 tetrahydropyridazine-3-carboxylic acid (MTHP) at an effective rate of 10g diluted in 2 L water plus 0.25% Nouryon wetter and applied to 1 ton of seed. These seed were planted in coarse river sand and grown in a greenhouse under ambient light at the greenhouse at 21° C. Plants were irrigated every other day with water containing 50% strength Hoaglands solution. Plants were assessed for emergence and biomass accumulation 30 days after planting. The plants from seeds treated with 6-oxo-1,4,5,6-tetrahydropyridizin-3-carboxylic acid or 1-methyl 6-oxo-1,4,5,6 tetrahydropyridazine-3-carboxylic acid had larger root biomasses (0.83, 0.85 g, dry weight/plant) compared with plants from untreated seeds (0.65 g dry weight/plant). Wheat, corn and pepper seeds were treated with 6-oxo-1,4,5,6-tetrahydropyridizine-3-carboxylic acid (THP) using the same methodology and growth conditions as described in example 1 and the resulting plants were also treated with a light foliar cover spray using an electric hand-held sprayer. (100 g in 200 L water plus 0.25% Nouryon wetter) of 6-oxo-1,4,5,6 tetrahydropyridazine-3-carboxylic acid (30 days post emergence (wheat at Zadoks GS 14 (see FIG. 1), maize at V2, Pepper at 3-4 leaf stage) and then assessed for root and shoot biomass 45 days later. At 75 days post planting the plants were assessed for root and shoot biomass as measured with dry weight.

[5] = tested on: Soybean seeds (Var. Viking); assay: Soybean seed treatment, germination paper, shoot fresh weight (Example 10); settings: seeds imbibed three minutes in 0.01 mM; germination paper 75-85° F; two table lines, Control 98.3 and 106.2
Method: Soybean seeds were treated with 6-oxo-1,4,5,6 tetrahydropyridazine-3-carboxylic acid and the weights of the shoots were determined as shown in Table 2. Early seedling emergence is important for early establishment of a vigorous and productive crop. Soybean seeds (Var. Viking) were treated by imbibing them for three minutes with a solution of 0.01 mM 6-oxo-1,4,5,6 tetrahydropyridazine-3-carboxylic acid in an aqueous solution also containing soft soap and glycerol at pH 5.7-5.8. The control seeds were imbibed in aqueous solution containing only the soft soap and glycerol at pH 5.7-5.8. The seeds were placed on moist germination paper and allowed to germinate at 75-85° F. The fresh weights were taken to assess the shoot development.

[6] = tested on: wheat plants (Variety Skyfall); assay: Foliar treatment of greenhouse grown wheat, foliar and root biomass (Example 4); settings: foliar treatment, 30 days later, Zadocks growth stage 22-24
Method: Wheat, corn and pepper seeds were treated with 6-oxo-1,4,5,6-tetrahydropyridizine-3-carboxylic acid (THP) using the same methodology and growth conditions as described in example 1 and the resulting plants were also treated with a light foliar cover spray using an electric hand-held sprayer. (100 g in 200 L water plus 0.25% Nouryon wetter) of 6-oxo-1,4,5,6 tetrahydropyridazine-3-carboxylic acid (30 days post emergence (wheat at Zadoks GS 14 (see FIG. 1), maize at V2, Pepper at 3-4 leaf stage) and then assessed for root and shoot biomass 45 days later. At 75 days post planting the plants were assessed for root and shoot biomass as measured with dry weight. Greenhouse grown wheat plants (Variety […]) were given foliar treatment of 1-methyl 6-oxo-1,4,5,6 tetrahydropyridazine-3-carboxylic acid (MTHP) or 6-oxo-1,4,5,6 tetrahydropyridazine-3-carboxylic acid (THP), utilizing the same methodology as in example 2. Foliar and root biomass were determined 30 days later at Zadocks growth stage 22-24.

[7] = foliar dose 50 g/ha in 200 L/ha
[8] = foliar dose 100 g/ha in 200 L/ha
[9] = foliar dose 200 g/ha in 200 L/ha
[10] = seed treatment plus foliar spray 100 g in 200 L, 75 days post planting

SMILES: O=C1CCC(C(=O)O)=NN1 [THP, 6-oxo-1,4,5,6 tetrahydropyridazine-3-carboxylic acid]
- water content retained, relative to normally watered plants ([1]; two foliar treatments 0.1 mM): 67.7%
- water content retained, relative to normally watered plants ([1]; two foliar treatments 1 mM): 68.3%
- Root, FWt [2, 7]: 2.7 g
- Shoot, FWt [2, 7]: 7.8 g
- Root, FWt [2, 8]: 3.4 g
- Shoot, FWt [2, 8]: 7.2 g
- Root, FWt [2, 9]: 1.8 g
- Shoot, FWt [2, 9]: 5.1 g
- Wilted leaves ([3]; seed treatment 0.1 mM): 18
- Total leaves ([3]; seed treatment 0.1 mM): 61
- % Wilted leaves ([3]; seed treatment 0.1 mM): 30%
- Wilted leaves ([3]; seed treatment 0.5 mM): 14
- Total leaves ([3]; seed treatment 0.5 mM): 64
- % Wilted leaves ([3]; seed treatment 0.5 mM): 22%
- Wilted leaves ([3]; seed treatment 1 mM): 19
- Total leaves ([3]; seed treatment 1 mM): 57
- % Wilted leaves ([3]; seed treatment 1 mM): 33%
- Root Dry Weight, % Difference vs Untreated [4, 10]: 12%
- Shoot Dry Weight, % Difference vs Untreated [4, 10]: 7%
- Emergence, % Difference vs Untreated ([4]; seed treatment, % Emergence at 10 days post planting): 16%
- Shoots, Fresh wt. [5]: 114.3 mg and 128.6 mg
- Dry Weight Shoot ([6]; Con 0.55): 0.74 g
- Dry Weight Root ([6]; Con 1.03): 1.45 g
